According to patent US20220055997A1, “ANTIMICROBIAL COMPOUNDS AND COMPOSITIONS COMPRISING SAME” (B.G. NEGEV TECHNOLOGIES AND APPLICATIONS LTD., AT …, priority 2019, published 2022):

Experiments:
M. smegmatis ribosomes = assay: bacterial coupled transcription/translation assay, luciferase reporter (in vitro translation); format: biochemical; details: for inhibition of translation of a reporter gene by Mtb ribosomes in vitro / inhibition of luciferase activity compared with chloramphenicol / IC50: FIG. 4; for inhibition of translation of a reporter gene by Mtb ribosomes in vitro: dose-dependent; for inhibition of luciferase activity compared with chloramphenicol: luciferase activity vs compound concentration; for IC50: protein synthesis by in vitro translation reaction, M. smegmatis ribosomes
[1] = tested on: 29mer RNA SEQ ID NO: 1, hairpin 91 of M. tuberculosis PTC; assay: T2 relaxation (CPMG) NMR fragment screen; format: binding

SMILES | inhibition of translation of a reporter gene by Mtb ribosomes in vitro (M. smegmatis ribosomes) | inhibition of luciferase activity compared with chloramphenicol (M. smegmatis ribosomes) | IC50 (M. smegmatis ribosomes) [µM] | other results
Cc1nc(CN2CCN(Cc3csc(-c4ccccc4)n3)CC2)cs1 [Compound Nr. 2, 1-[(2-methylthiazol-4-yl)methyl]-4-[(2-phenylthiazol-4-yl)methyl]piperazine] | inhibit translation of a reporter gene | as effective inhibitor of luciferase activity as chloramphenicol | 8.9 | inhibition activity compared among compounds (M. smegmatis ribosomes; Nr. 2 compared to compounds Nr. 3, 4 and 5, data not shown): higher inhibition activity
CCN1CCN(Cc2csc(-c3ccccc3)n2)CC1 [Compound Nr. 8, 1-ethyl-4-[(2-phenylthiazol-4-yl)methyl]piperazine] | inhibit translation of a reporter gene | about twice as better than both | 4.8 | –
NCc1csc(-c2cccc(Cl)c2)n1 [[2-(3-chlorophenyl)-1,3-thiazol-4-yl]methanamine] | – | – | – | change in T2 upon addition of RNA ([1]; pool 81, peaks 1-3, 1D CPMG spectra, FIG. 7A): largest change in T2
O=C(N[C@H](CO)[C@H](O)c1ccc([N+](=O)[O-])cc1)C(Cl)Cl [chloramphenicol, reference compound] | – | – | 9.2 | –
CNCc1ccc(-c2nccs2)cc1 [N-methyl-4-(1,3-thiazol-2-yl)benzylamine] | – | – | – | hit in T2-edited (CPMG NMR) mini-screen ([1]; pool number 2 of three pools of 10 fragments, with and without target RNA, FIG. 3): hits
